From patent publication US9249151B2, “Bis-amido pyridines” (Boehringer Ingelheim International GmbH, priority 2013, dated 2016) come the findings set out here.

pIC50: −log10 of the molar value. Where two headings read alike, the source gives them in different places.

In this assay the target is BIR3 domain of human cIAP1 (amino acids 256 to 363; cIAP1 BIR3) (Homo sapiens (Human), UniProt Q13490). As to the kind of experiment: cIAP1 BIR3 binding assay (DELFIA). Here is the method:
XIAP BIR3 and cIAP1 BIR3 Binding Assays (DELFIA)
Peptide […]-Lys(Biotin), representing the N-terminus of mature human SMAC (SMAC peptide), was used as interaction partner in the protein-peptide interaction assay.
BIR3 domains (10 nM) were incubated with SMAC peptide (10 nM) in assay buffer (50 mM Tris, 120 mM NaCl, 0.1% BSA, 1 mM DTT, 0.05% TritonX100) for one hour at room temperature in the presence of inhibitory compounds. The assay mixture was transferred to a streptavidin coated plate and incubated for one hour at room temperature to allow binding of the biotinylated peptide and associated BIR3 domains to the plate. After several washing steps Eu labeled anti-GST antibody (e.g. Perkin Elmer DELFIA Eu-N1-antiGST AD0250) was added to detect BIR3 domain-SMAC peptide interactions m according to Perkin Elmer's instructions. […] Time resolved Europium fluoresecence was measured in a Wallac Victor using Standard assay settings.
DELFIA assay results were plotted against compound concentrations and Software GraphPad Prizm was used to calculate half maximal inhibitory concentrations (IC50 values).

The mark [1] stands for this setting: BIR3 domain 10 nM, SMAC peptide 10 nM, values represent the (S)-isomers, * = racemic compound, read-out: cIAP1 BIR-3 IC50.

BIR3 domain of human cIAP1 (amino acids 256 to 363; cIAP1 BIR3), sequence (Q13490 256-363): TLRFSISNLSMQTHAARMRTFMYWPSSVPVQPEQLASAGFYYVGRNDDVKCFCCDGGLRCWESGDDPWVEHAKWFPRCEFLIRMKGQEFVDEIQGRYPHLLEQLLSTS

A word on the pIC50: it is −log10 of the IC50, conventionally taken in molar units. Consider `CNC(C)C(=O)Nc1cc(-c2c(C)ccc3ncccc23)cc(NC(=O)c2cc(-c3ccccc3)on2)n1` (centres unmarked) [Example 46, N-{6-[2-(methylamino)propanamido]-4-(6-methylquinolin-5-yl)pyridin-2-yl}-5-phenyl-1,2-oxazole-3-carboxamide], for which the pIC50 under setting [1] is 5.20.
In the case of `CNC(C)C(=O)Nc1cc(-c2ccncc2C)cc(NC(=O)c2ccc(Cl)cn2)n1` (centres unmarked) [Example 47, 5-chloro-N-{6-[2-(methylamino)propanamido]-4-(3-methylpyridin-4-yl)pyridin-2-yl}pyridine-2-carboxamide], under setting [1], the pIC50 is 7.77.
For `CNC(C)C(=O)Nc1cc(-c2cccc3nc(C)c(C)n23)cc(NC(=O)c2cc3c(cn2)COC3)n1` (centres unmarked) [Example 48, N-(4-{2,3-dimethylimidazo[1,2-a]pyridin-5-yl}-6-[2-(methylamino)propanamido]pyridin-2-yl)-1H,3H-furo[3,4-c]pyridine-6-carboxamide], the pIC50 under setting [1] was 9.00.
The same measure, in the same setting: under `CNC(C)C(=O)Nc1cc(-c2cccc3nc(C)c(C)n23)cc(NC(=O)Cc2ccccc2)n1` (centres unmarked) [Example 49, N-(4-{2,3-dimethylimidazo[1,2-a]pyridin-5-yl}-6-(2-phenylacetamido)pyridin-2-yl)-2-(methylamino)propanamide] stands 5.27; under `CNC(C)C(=O)Nc1cc(-c2cccc3nc(C)c(C)n23)cc(NC(=O)c2cc3ccccc3[nH]2)n1` (centres unmarked) [Example 50, N-(4-{2,3-dimethylimidazo[1,2-a]pyridin-5-yl}-6-[2-(methylamino)propanamido]pyridin-2-yl)-1H-indole-2-carboxamide], 6.46.
As to `CNC(C)C(=O)Nc1cc(-c2cccc3nc(C)c(C)n23)cc(NC(=O)c2ccc(OC)cn2)n1` (centres unmarked) [Example 51, N-(4-{2,3-dimethylimidazo[1,2-a]pyridin-5-yl}-6-[2-(methylamino)propanamido]pyridin-2-yl)-5-methoxypyridine-2-carboxamide], under setting [1], the pIC50 is 9.00.
Still for that read-out and setting: under `CNC(C)C(=O)Nc1cc(-c2cncc3ccn(C)c23)cc(NC(=O)c2ccc(Cl)cn2)n1` (centres unmarked) [Example 52, 5-chloro-N-(4-{1-methyl-1H-pyrrolo[3,2-c]pyridin-7-yl}-6-[2-(methylamino)propanamido]pyridin-2-yl)pyridine-2-carboxamide] stands 9.00.
Turning to `CNC(C)C(=O)Nc1cc(-c2cccc3cncc(C)c23)cc(NC(=O)c2ccc(Cl)cn2)n1` (centres unmarked) [Example 53], under setting [1], the pIC50 was 9.00.
On to `CNC(C)C(=O)Nc1cc(-c2c(Cl)cnc3ccccc23)cc(NC(=O)c2ccc(Cl)cn2)n1` (centres unmarked) [Example 54, 5-chloro-N-[4-(3-chloroquinolin-4-yl)-6-[2-(methylamino)propanamido]pyridin-2-yl]pyridine-2-carboxamide], for which the pIC50 under setting [1] was 7.96.
In the case of `Cc1cccc2ccn(-c3cc(NC(=O)c4ccc(Cl)cn4)nc(NC(=O)C(C)N)c3)c12` (centres unmarked) [Example 55, N-[6-(2-aminopropanamido)-4-(7-methyl-1H-indol-1-yl)pyridin-2-yl]-5-chloropyridine-2-carboxamide], the pIC50 under setting [1] was 7.35.
Same read-out and setting: the value for `CC(N)C(=O)Nc1cc(Cl)cc(NC(=O)c2ccccn2)n1` (centres unmarked) [Example 56, N-[6-(2-aminopropanamido)-4-chloropyridin-2-yl]pyridine-2-carboxamide] was 5.34; that for `Cc1ccc(C(=O)Nc2cccc(NC(=O)C(C)N)n2)nc1` (centres unmarked) [Example 57, N-[6-(2-aminopropanamido)pyridin-2-yl]-5-methylpyridine-2-carboxamide] was 6.38; that for `CNC(C)C(=O)Nc1cc(-c2nc(C)nc3c(C)c(C)n(C)c23)cc(NC(=O)c2ccc(Cl)cn2)n1` (centres unmarked) [Example 59, 5-chloro-N-{6-[2-(methylamino)propanamido]-4-{tetramethyl-5H-pyrrolo[3,2-d]pyrimidin-4-yl}pyridin-2-yl}pyridine-2-carboxamide] was 9.00.
The compound `CNC(C)C(=O)Nc1cc(-c2nc(C)nc3c(C)nn(C)c23)cc(NC(=O)c2ncc(Cl)cc2C)n1` (centres unmarked) [Example 60, 5-chloro-3-methyl-N-{6-[2-(methylamino)propanamido]-4-{trimethyl-1H-pyrazolo-[4,3-d]pyrimidin-7-yl}-pyridin-2-yl}pyridine-2-carboxamide] gave a pIC50 of 7.47.
Consider `CNC(C)C(=O)Nc1cc(-c2ncnc3c(C)nn(C)c23)cc(NC(=O)c2ncc(Cl)cc2C)n1` (centres unmarked) [Example 61, 5-chloro-N-(4-{1,3-dimethyl-1H-pyrazolo[4,3-d]pyrimidin-7-yl}-6-[2-(methylamino)-propanamido]pyridin-2-yl)-3-methylpyridine-2-carboxamide], for which, under setting [1], the pIC50 is 9.00.
As to `CNC(C)C(=O)Nc1cc(-c2nc(C)nc3c(C)nn(C)c23)cc(NC(=O)c2ncc(Cl)cc2F)n1` (centres unmarked) [Example 62, 5-chloro-3-fluoro-N-{6-[2-(methylamino)propanamido]-4-{trimethyl-1H-pyrazolo-[4,3-d]pyrimidin-7-yl}-pyridin-2-yl)pyridine-2-carboxamide], the pIC50 under setting [1] was 9.00.
For the compound `CNC(C)C(=O)Nc1cc(-c2nc(OC)nc3c(C)nn(C)c23)cc(NC(=O)c2ccc(Cl)cn2)n1` (centres unmarked) [Example 63, 5-chloro-N-(4-{5-methoxy-1,3-dimethyl-1H-pyrazolo[4,3-d]pyrimidin-7-yl}-6-[2-(methylamino)-propanamido]pyridin-2-yl)pyridine-2-carboxamide], under setting [1], the pIC50 is 7.26.
